Source: patent US11472771B2, “Process for making amino diaryl ethers and amino diaryl ethers hydrochloride salts” (CELLESTIA BIOTECH AG, priority 2018, dated 2022)
Values after ≈ are worked out from the molar mass of the structure shown.

Tests used:
[1] = Solubility in water at various pH-values; format: physicochemical; conditions: for pH solution / soluble / calculated concentration charged: 500 mg in 14 ml; for soluble: conc. 33.33 mg/mL; for calculated concentration charged: not soluble
Protocol: The solubilities in water of 6-(4-(tert-butyl)phenoxy)pyridin-3-amine (formula (Ia)) and the monohydrochloride salt thereof, i.e. 6-(4-(tert-butyl)phenoxy)pyridin-3-amine monohydrochloride, were assessed at various pH-values according to Tables 3 and 4. The solubility in water of 6-(4-(tert-butyl)phenoxy)pyridin-3-amine (formula (Ia)) according to Table 3 was assayed as follows: Free base 500 mg were charged into 14 mL of acidic media at pH=2, 4, at neutral pH=7 and basic pH=10 to afford suspensions within calculated concentration of appr. 35 mg/mL. The solubility in water of 6-(4-(tert-butyl)phenoxy)pyridin-3-amine monohydrochloride according to Table 4 was assayed as follows: HCl salt 100 mg each were charged into acidic media at pH=2 and 4 and neutral media pH=7 to furnish solutions. Most important observation was to that at a neutral solution at pH=7 drops down to pH=1 by charging HCl salt 100 mg.

[2] = Solubility in water at various pH-values; format: physicochemical; conditions: aqueous buffer, thermodynamic from solid; in 0.01% HCl; 100 mg in 190 mL; read-out: solubility limit
[3] = 15% acetic acid soln., pH solvent 2

- pH solution [1, 3]: 2
- soluble [1, 3]: no
- calculated concentration charged [1, 3]: 33.33 mg/mL
- pH solution ([1]; Fluke 33643 (pH = 4)): 4
- soluble ([1]; Fluke 33643 (pH = 4)): no
- calculated concentration charged ([1]; Fluke 33643 (pH = 4)): 33.33 mg/mL
- pH solution ([1]; Fluke 33646 (pH = 7)): 7
- soluble ([1]; Fluke 33646 (pH = 7)): no
- calculated concentration charged ([1]; Fluke 33646 (pH = 7)): 33.33 mg/mL
- pH solution ([1]; Fluke 33649 (pH = 10)): 10
- soluble ([1]; Fluke 33649 (pH = 10)): no
- calculated concentration charged ([1]; Fluke 33649 (pH = 10)): 33.33 mg/mL
- solubility in water ([1]; water, in words): very poorly soluble
- solubility [2]: 530 µg/mL (≈ 2190 µM)
Structure (SMILES): CC(C)(C)c1ccc(Oc2ccc(N)cn2)cc1 [6-(4-(tert-butyl)phenoxy)pyridin-3-amine]
